Experiments:
rabbit [1] = settings: Prenatal developmental toxicity study, new zealand white, Oral, Gavage/Intubation, dose end: 18 GD, group: maternal
mouse [2] = settings: Carcinogenicity; cd1; Oral; Gavage/Intubation; dose end: 2 year; group: systemic; systemic / in life observation / body weight / body weight gain + systemic / in life observation / clinical signs / [other] + systemic / in …
rat [3] = settings: Chronic toxicity, sprague dawley, Oral, Gavage/Intubation, dose end: 6 month, group: systemic
rat [4] = settings: Peri- and post-natal toxicity study (Segment III), sprague dawley, Oral, Gavage/Intubation, dose end: 4 PND
dog [5] = settings: Chronic toxicity, beagle, Oral, Capsule, dose end: 52 week, group: systemic
rat [6] = settings: Fertility (Segment I), sprague dawley, Oral, Gavage/Intubation, dose end: 7 GD, group: parental
rabbit [7] = settings: Prenatal developmental toxicity study, new zealand white, Oral, Gavage/Intubation, dose end: 18 GD, group: maternal; remark: listed apart in the source
rat [8] = settings: Peri- and post-natal toxicity study (Segment III), sprague dawley, Oral, Gavage/Intubation, dose end: 21 PND
rat [9] = settings: Sub-acute repeat dose toxicity, sprague dawley, Oral, Gavage/Intubation, dose end: 4 week, group: systemic
rat [10] = settings: Prenatal developmental toxicity study; sprague dawley; Oral; Gavage/Intubation; dose end: 15 GD; group: maternal; systemic / in life observation / clinical signs / salivation
rat [11] = settings: Prenatal developmental toxicity study; sprague dawley; Oral; Gavage/Intubation; dose end: 15 GD; group: maternal; reproductive / reproductive performance / estrous cycle / corpora lutea + reproductive / reproductive performance / implantations / …
dog [12] = settings: Chronic toxicity; beagle; Oral; Capsule; dose end: 6 month; group: systemic; systemic / clinical chemistry / triglycerides / triglycerides + systemic / in life observation / body weight / body weight gain + systemic…
rat [13] = settings: Carcinogenicity; sprague dawley; Oral; Gavage/Intubation; dose end: 2 year; group: systemic; systemic / in life observation / body weight / body weight gain + systemic / in life observation / clinical signs / [other] + systemic / in …
mouse [14] = settings: Subchronic oral toxicity in rodents, cd1, Gavage/Intubation, dose end: 94 days, group: systemic
mouse [15] = settings: Carcinogenicity, b6c3f1, Oral, Feed, dose end: 24 month, group: systemic
rat [16] = settings: Subchronic oral toxicity in rodents, sprague dawley, Feed, dose end: 13 week, group: systemic, systemic / clinical chemistry / cholesterol / cholesterol + systemic / organ weight / liver / relative to body weight + systemic / pathology…
rat [17] = settings: Combined chronic toxicity/carcinogenicity; sprague dawley; Oral; Feed; dose end: 24 month; group: systemic; systemic / organ weight / liver / relative to body weight + systemic / pathology microscopic / liver / hypertrophy + systemic / pathology …
rat [18] = settings: Multigenerational reproductive toxicity study, sprague dawley, Oral, Feed, dose end: 2 generation
dog [19] = settings: Chronic toxicity; beagle; Oral; Feed; dose end: 52 week; group: systemic; systemic / clinical chemistry / alkaline phosphatase (alp/alk) / alkaline phosphatase (alp/alk) + systemic / organ weight / liver / absolute…
rat [20] = settings: Carcinogenicity, sprague dawley, Injection, Intraperitoneal, dose end: 52 week, group: systemic
mouse [21] = settings: Carcinogenicity, b6c3f1, Injection, Intraperitoneal, dose end: 52 week, group: systemic
rat [22] = settings: Subchronic oral toxicity in rodents, sprague dawley, Injection, Intraperitoneal, dose end: 45 day, group: systemic
[23] = systemic / in life observation / body weight / body weight gain + systemic / in life observation / food consumption / food consumption
[24] = systemic / in life observation / food consumption / food consumption
[25] = systemic / clinical chemistry / chloride / chloride + systemic / clinical chemistry / triglycerides / triglycerides + systemic / clinical …
[26] = systemic / clinical chemistry / triglycerides / triglycerides + systemic / in life observation / body weight / body weight gain + systemic…
[27] = group: maternal, reproductive / offspring survival early / birth index / live birth index
[28] = group: parental, systemic / in life observation / clinical signs / [other] + systemic / in life observation / clinical signs / labored respiration + systemic…
[29] = group: parental, systemic / in life observation / clinical signs / [other] + systemic / in life observation / clinical signs / salivation + systemic / in …
[30] = systemic / clinical chemistry / triglycerides / triglycerides + systemic / in life observation / body weight / body weight gain
[31] = systemic / in life observation / clinical signs / abnormal respiratory sounds + systemic / in life observation / clinical signs / urogenital…
[32] = systemic / in life observation / clinical signs / abnormal respiratory sounds + systemic / in life observation / food consumption / food …
[33] = reproductive / reproductive performance / aborted / aborted + reproductive / reproductive performance / postimplantation loss / …
[34] = group: maternal, reproductive / reproductive performance / reproductive performance other / NOS
[35] = group: maternal, reproductive / reproductive performance / reproductive performance other / NOS + reproductive / offspring survival early / litter viability …
[36] = group: offspring, systemic / in life observation / body weight / offspring (pup) weight
[37] = group: parental, systemic / in life observation / clinical signs / abnormal respiratory sounds + systemic / in life observation / clinical signs / emaciation…
[38] = group: parental, systemic / in life observation / mortality / mortality
[39] = systemic / clinical chemistry / potassium / potassium + systemic / clinical chemistry / sodium / sodium + systemic / in life observation / …
[40] = systemic / in life observation / clinical signs / motor activity
[41] = systemic / clinical chemistry / calcium / calcium + systemic / clinical chemistry / cholesterol / cholesterol + systemic / clinical …
[42] = systemic / clinical chemistry / potassium / potassium + systemic / clinical chemistry / bilirubin / total bilirubin + systemic / clinical …
[43] = systemic / pathology gross / liver / enlarged + systemic / pathology gross / liver / mass + systemic / pathology gross / liver / nodule(s…
[44] = group: parental, systemic / in life observation / body weight / body weight + systemic / in life observation / food consumption / food consumption + systemic…
[45] = systemic / in life observation / mortality / mortality + systemic / pathology microscopic / peritoneum / sarcoma
[46] = systemic / in life observation / mortality / mortality + systemic / pathology microscopic / peritoneum / sarcoma + systemic / in life …
[47] = systemic / in life observation / mortality / mortality
[48] = systemic / pathology microscopic / peritoneum / sarcoma + systemic / in life observation / body weight / body weight + systemic / in life …
[49] = systemic / in life observation / clinical signs / distended abdomens + systemic / in life observation / mortality / mortality + systemic / …

In the case of `CCOC(=O)COc1ccc2c(c1)CC(NCC(O)c1cccc(Cl)c1)CC2.Cl` (centres undefined), the LOAEL (rabbit [1]; [23]) is reported as > 500 mg/kg/day, the NOAEL (rabbit [1]; [23]) is reported as ≥ 500 mg/kg/day and the LEL (rabbit [1]; [24]) is reported as 50 mg/kg/day. For the same compound, the NEL (rabbit [1]; [24]) was < 50 mg/kg/day, the LEL (mouse [2]) was 25 mg/kg/day and the LOAEL (mouse [2]) was > 100 mg/kg/day. The NEL (mouse [2]) was < 25 mg/kg/day, the NOAEL (mouse [2]) was ≥ 100 mg/kg/day and the LOAEL (rat [3]; [25]) was > 500 mg/kg/day. The NOAEL (rat [3]; [25]) was ≥ 500 mg/kg/day, the LEL (rat [3]; [26]) was 20 mg/kg/day and the NEL (rat [3]; [26]) was < 20 mg/kg/day. For the same compound, the LEL (rat [4]; [27]) was 200 mg/kg/day, the LOAEL (rat [4]; [27]) was > 750 mg/kg/day and the NEL (rat [4]; [27]) was 50 mg/kg/day. The NOAEL (rat [4]; [27]) was ≥ 750 mg/kg/day, the LOAEL (rat [4]; [28]) was > 750 mg/kg/day and the NOAEL (rat [4]; [28]) was ≥ 750 mg/kg/day. The LEL (rat [4]; [29]) was 50 mg/kg/day, the NEL (rat [4]; [29]) was < 50 mg/kg/day and the LEL (dog [5]; [30]) was 10 mg/kg/day. The NEL (dog [5]; [30]) was < 10 mg/kg/day, the LOAEL (dog [5]; [26]) was > 250 mg/kg/day and the NOAEL (dog [5]; [26]) was ≥ 250 mg/kg/day. For the same compound, the LOAEL (rat [6]; [31]) was > 750 mg/kg/day, the NOAEL (rat [6]; [31]) was ≥ 750 mg/kg/day and the LEL (rat [6]; [32]) was 50 mg/kg/day. The NEL (rat [6]; [32]) was < 50 mg/kg/day, the LOAEL (rabbit [7]; [33]) was > 500 mg/kg/day and the NEL (rabbit [7]; [33]) was 50 mg/kg/day. For the same compound, the NOAEL (rabbit [7]; [33]) was ≥ 500 mg/kg/day, the LEL (rabbit [7]; reproductive / reproductive performance / postimplantation loss / postimplantation loss) was 160 mg/kg/day and the LEL (rat [8]; [34]) was 50 mg/kg/day. For the same compound, the NEL (rat [8]; [34]) was < 50 mg/kg/day, the LOAEL (rat [8]; [35]) was > 750 mg/kg/day and the NOAEL (rat [8]; [35]) was ≥ 750 mg/kg/day. The LEL (rat [8]; [36]) was 50 mg/kg/day, the LOAEL (rat [8]; [36]) was 200 mg/kg/day and the NEL (rat [8]; [36]) was < 50 mg/kg/day. For the same compound, the NOAEL (rat [8]; [36]) was 50 mg/kg/day, the LOAEL (rat [8]; [37]) was > 750 mg/kg/day and the NOAEL (rat [8]; [37]) was ≥ 750 mg/kg/day. For the same compound, the LEL (rat [8]; [38]) was 50 mg/kg/day, the NEL (rat [8]; [38]) was < 50 mg/kg/day and the LOAEL (rat [9]; [39]) was > 500 mg/kg/day. For the same compound, the NOAEL (rat [9]; [39]) was ≥ 500 mg/kg/day, the LEL (rat [9]; [40]) was 20 mg/kg/day and the NEL (rat [9]; [40]) was < 20 mg/kg/day. The LEL (rat [10]) was 200 mg/kg/day, the LOAEL (rat [10]) was > 750 mg/kg/day and the NEL (rat [10]) was 50 mg/kg/day. For the same compound, the NOAEL (rat [10]) was ≥ 750 mg/kg/day, the LEL (rat [11]) was 200 mg/kg/day and the LOAEL (rat [11]) was > 750 mg/kg/day. The NEL (rat [11]) was 50 mg/kg/day, the NOAEL (rat [11]) was ≥ 750 mg/kg/day and the LEL (dog [12]) was 10 mg/kg/day. The LOAEL (dog [12]) was > 250 mg/kg/day, the NEL (dog [12]) was < 10 mg/kg/day and the NOAEL (dog [12]) was ≥ 250 mg/kg/day. For the same compound, the LEL (rat [13]) was 50 mg/kg/day, the LOAEL (rat [13]) was > 500 mg/kg/day and the NEL (rat [13]) was < 50 mg/kg/day. The NOAEL (rat [13]) was ≥ 500 mg/kg/day, the LOAEL (mouse [14]; [41]) was > 500 mg/kg/day and the NOAEL (mouse [14]; [41]) was ≥ 500 mg/kg/day. The LEL (mouse [14]; [42]) was 100 mg/kg/day and the NEL (mouse [14]; [42]) was < 100 mg/kg/day.

Work on `C#CC(C)(C)NC(=O)c1cc(Cl)cc(Cl)c1` [Propyzamide] yielded an LOAEL (mouse [15]; systemic / pathology gross / liver / enlarged + systemic / pathology gross / liver / mass + systemic / pathology gross / liver / nodule(s)) of 75 mg/kg/day, an LEL (mouse [15]; [43]) of 75 mg/kg/day and an NEL (mouse [15]; [43]) of 15 mg/kg/day. For the same compound, the NOAEL (mouse [15]; [43]) was 15 mg/kg/day, the LEL (rat [16]) was 60 mg/kg/day and the LOAEL (rat [16]) was 60 mg/kg/day. For the same compound, the NEL (rat [16]) was 12.3 mg/kg/day, the NOAEL (rat [16]) was 12.3 mg/kg/day and the LEL (rat [17]) was 48.8 mg/kg/day. The LOAEL (rat [17]) was 48.8 mg/kg/day, the NEL (rat [17]) was 10.1 mg/kg/day and the NOAEL (rat [17]) was 10.1 mg/kg/day. For the same compound, the LEL (rat [18]; [36]) was 114 mg/kg/day, the LOAEL (rat [18]; [36]) was 114 mg/kg/day and the NEL (rat [18]; [36]) was 15.4 mg/kg/day. For the same compound, the NOAEL (rat [18]; [36]) was 15.4 mg/kg/day, the LEL (rat [18]; [44]) was 114 mg/kg/day and the LOAEL (rat [18]; [44]) was 114 mg/kg/day. It also gave an NEL (rat [18]; [44]) of 15.4 mg/kg/day, an NOAEL (rat [18]; [44]) of 15.4 mg/kg/day and an LEL (dog [19]) of 33.1 mg/kg/day. The LOAEL (dog [19]) was 33.1 mg/kg/day, the NEL (dog [19]) was 11.9 mg/kg/day and the NOAEL (dog [19]) was 11.9 mg/kg/day.

For `CC(COc1ccccc1)N(CCCl)Cc1ccccc1.Cl` (centres undefined) [Phenoxybenzamine hydrochloride], the LEL (rat [20]; [45]) was 5 mg/kg/day, the NEL (rat [20]; [45]) was < 5 mg/kg/day and the LOAEL (rat [20]; [46]) was > 10 mg/kg/day. For the same compound, the NOAEL (rat [20]; [46]) was ≥ 10 mg/kg/day, the LEL (mouse [21]; [47]) was 12.5 mg/kg/day and the NEL (mouse [21]; [47]) was < 12.5 mg/kg/day. For the same compound, the LOAEL (mouse [21]; [48]) was > 25 mg/kg/day, the NOAEL (mouse [21]; [48]) was ≥ 25 mg/kg/day and the LEL (rat [22]; systemic / in life observation / clinical signs / distended abdomens) was 15 mg/kg/day. For the same compound, the LOAEL (rat [22]; [49]) was > 30 mg/kg/day, the NEL (rat [22]; [49]) was 7.5 mg/kg/day and the NOAEL (rat [22]; [49]) was ≥ 30 mg/kg/day.

Source: EPA's ToxRefDB 2
